The record followed here is PubChem BioAssay AID520 (NMMLSC, 2006).

The target of the experiment is N-formyl peptide receptor 2 (Homo sapiens) (UniProt P25090). The experiment in a line: FPRL1 binding inhibitor potency, dose response, cell-based, FPR counter-screen, fluorescent ligand (AID 520). The settings on record: FPRL1-expressing cells, fluorescent ligand binding inhibition; for Ki: measured here: FPRL1 binding Ki.

Molecules are shown by their SMILES. Active and inactive are the calls of the source. The rule behind the calls is not given here.

N-formyl peptide receptor 2 (Homo sapiens), sequence (P25090 whole entry, looked up): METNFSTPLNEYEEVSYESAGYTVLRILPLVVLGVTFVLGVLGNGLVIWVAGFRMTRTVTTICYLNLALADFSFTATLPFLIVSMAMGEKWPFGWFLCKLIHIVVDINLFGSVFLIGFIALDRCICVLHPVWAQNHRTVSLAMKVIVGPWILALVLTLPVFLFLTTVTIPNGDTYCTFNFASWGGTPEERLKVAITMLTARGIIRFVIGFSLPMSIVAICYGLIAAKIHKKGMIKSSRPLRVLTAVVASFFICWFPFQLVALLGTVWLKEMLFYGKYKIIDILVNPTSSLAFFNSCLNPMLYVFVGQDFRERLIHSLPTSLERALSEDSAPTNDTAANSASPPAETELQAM

Broadly, the Ki is a measure of affinity in units of concentration, obtained from inhibition or displacement. `Cc1nc2c(C#N)c(C)[nH]n2c(=O)c1Cc1ccccc1` gave a Ki of more than 40.3 µM.
Regarding `COc1ccccc1Oc1c(C)oc2cc(OC(=O)c3ccco3)ccc2c1=O`, the Ki is more than 40.3 µM.
The compound `COc1ccc(-c2cc(C(F)(F)F)nc(NC3CCCC3)n2)cc1OC` yielded a Ki of more than 40.3 µM.
As usually defined, the IC50 is the concentration at which inhibition is half-maximal. In the case of `COCCCN1C(=O)C(=O)/C(=C(/O)c2ccccc2)C1c1ccc2c(c1)OCO2` (stereo unspecified), the IC50 was > 66.7 µM (inactive) and the Ki is more than 40.3 µM.
Regarding `COc1ccc(OC)c(C2C(C(=O)c3cccs3)=C(O)C(=O)N2c2cc(C)on2)c1` (stereo unspecified), the IC50 is > 66.7 µM (inactive) and the Ki is more than 40.3 µM.
For the compound `Cc1[nH]n2c(=O)c3c(nc2c1-c1ccccc1)CCC3`, the Ki was more than 40.3 µM.
On to `O=C(C1=C(O)C(=O)N(CCc2ccccc2)C1c1cccnc1)c1ccco1` (stereo unspecified), for which the IC50 is > 66.7 µM (inactive) and the Ki was more than 40.3 µM.
Turning to `CCOC(=O)Cc1cc(=O)n2[nH]c(C)c(-c3ccccc3)c2n1`, the Ki was more than 40.3 µM.
As for `Cc1[nH]n2c(=O)c3c(nc2c1-c1ccc(Cl)cc1)CCC3`, the Ki is more than 40.3 µM.
For the compound `Cc1ccc(C(=O)C2=C(O)C(=O)N(Cc3ccccc3)C2c2cccnc2)o1` (stereo unspecified), the IC50 was > 66.7 µM (inactive) and the Ki was more than 40.3 µM.
In the case of `COc1ccc(NC(=O)C(c2ccc(C)cc2)N(C)C(=O)c2cnccn2)cc1` (stereo unspecified), the inhibition constant Ki was more than 40.3 µM.
For `Cc1ccc(/C(O)=C2\C(=O)C(=O)N(CC(C)O)C2c2ccc(N(C)C)cc2)cc1` (stereo unspecified), the IC50 is > 66.7 µM (inactive) and the Ki was more than 40.3 µM.
`CCCCCNC(=O)c1ccc2c(=O)[nH]c3c(C(=O)NCC4CCCO4)sc(=S)n3c2c1` (stereo unspecified) had a Ki of more than 40.3 µM.
Take `COc1ccc(CCN2C(=O)C(O)=C(C(=O)c3ccco3)C2c2cccs2)cc1OC` (stereo unspecified): the IC50 was > 66.7 µM (inactive) and the Ki is more than 40.3 µM.
Regarding `N[C@@H](Cc1ccc(O)c(I)c1)C(=O)O`, the inhibition constant Ki was more than 40.3 µM.
As for `COc1cccc(/C(O)=C2/C(=O)C(=O)N(Cc3cccnc3)C2c2ccco2)c1` (stereo unspecified), the IC50 was > 66.7 µM (inactive) and the Ki was more than 40.3 µM.
Take `CCCOc1ccc(C2C(C(=O)c3ccc(C)o3)=C(O)C(=O)N2Cc2cccnc2)cc1` (stereo unspecified): the IC50 was > 66.7 µM (inactive) and the Ki is more than 40.3 µM.
Consider `O=C1C(C23CC4CC(CC(C4)C2)C3)C(=O)N(c2ccccc2)N1c1ccccc1`, for which the IC50 was > 66.7 µM (inactive) and the inhibition constant (Ki) was more than 40.3 µM.
Consider `COc1ccc(-c2nc(-c3ccc(Br)o3)no2)cc1OC`, for which the Ki was more than 40.3 µM.
Compound `Cc1cccc(OCC(=O)Nc2cc(C)ccc2O)c1` registered a Ki of more than 40.3 µM.
Consider `CSCCC1C(C#N)=C(N)Oc2n[nH]c(-c3cccs3)c21` (stereo unspecified), for which the IC50 was > 66.7 µM (inactive) and the inhibition constant (Ki) is more than 40.3 µM.
Take `Cc1oc2cc(O)cc(O)c2c(=O)c1-c1ccc2c(c1)OCCCO2`: the inhibition constant (Ki) is more than 40.3 µM.
Take `O=C1CCCC(O)=C1C(C#Cc1ccccc1)C1=C(O)CCCC1=O`: the IC50 is > 66.7 µM (inactive) and the Ki was more than 40.3 µM.
On to `N#Cc1c(C(F)(F)F)cc(-c2ccccc2)nc1SCc1nc(N)nc(N2CCOCC2)n1`, for which the Ki is more than 40.3 µM.
Consider `COc1cccc2cc(C(=O)C3=C(O)C(=O)N(Cc4ccco4)C3c3cccnc3)oc12` (stereo unspecified), for which the IC50 was > 66.7 µM (inactive) and the Ki was more than 40.3 µM.
As for `COCCCN1C(=O)C(O)=C(C(=O)c2ccco2)C1c1cccc(Br)c1` (stereo unspecified), the IC50 was > 66.7 µM (inactive) and the Ki was more than 40.3 µM.
In the case of `COc1ccc(-c2cc(C(F)(F)F)nc(N3CCN(c4ccccc4)CC3)n2)cc1OC`, the Ki was more than 40.3 µM.
`COc1cccc(C2/C(=C(\O)c3ccc(OC)c(OC)c3)C(=O)C(=O)N2c2cc(C)on2)c1` (stereo unspecified): the IC50 was > 66.7 µM (inactive) and the Ki was more than 40.3 µM.
As to `COC(=O)Cc1[nH]nc2c1C(C1C=CCCC1)C(C#N)=C(N)O2` (stereo unspecified), the IC50 was > 66.7 µM (inactive) and the inhibition constant Ki was more than 40.3 µM.
Regarding `CCCS(=O)(=O)N1CCCC(C(=O)N2CCC(Cc3ccccc3)CC2)C1` (stereo unspecified), the inhibitory constant (Ki) was more than 40.3 µM.
Take `COc1ccc(-c2cn3cccnc3n2)cc1NC(=O)C1CC1`: the Ki stood at 4.6 µM.
The same measure, in the same setting: the result for `COc1cc2c3c(c1)/C(=C1/SC(NC(C)=O)=NC1=O)C(=O)N3C(C)(C)C=C2C` reads more than 40.3 µM.
For `O=C1N=c2ccccc2=C1c1sc(=S)n(CC2CCCO2)c1O` (stereo unspecified), the IC50 is > 66.7 µM (inactive) and the Ki was more than 40.3 µM.
In the case of `COC(=O)c1[nH]c(C)c(/C(O)=C2\C(=O)C(=O)N(CCCN3CCOCC3)C2c2ccccn2)c1C` (stereo unspecified), the IC50 was > 66.7 µM (inactive) and the Ki was more than 40.3 µM.
Regarding `O=S(=O)(c1cnc[nH]1)N1CCc2ccccc21`, the Ki was more than 40.3 µM.
Compound `Cc1ccc(NC(=O)c2oc3ccc(S(=O)(=O)N4CCOCC4)cc3c2C)cc1C` had a Ki of more than 40.3 µM.
In the case of `COc1ccc(OC)c(C2/C(=C(/O)c3ccccc3)C(=O)C(=O)N2Cc2ccco2)c1` (stereo unspecified), the IC50 was > 66.7 µM (inactive) and the Ki was more than 40.3 µM.
In turn, `CN(C)c1nc(N(C)C)nc(N(C)C)n1` had a Ki of more than 40.3 µM.
With `CC1=C(C(=O)OC(C)C)[C@]2(C(=O)N(CC(N)=O)c3ccccc32)C(C#N)=C(N)O1`, the IC50 was > 66.7 µM (inactive) and the Ki was more than 40.3 µM.
`COc1ccc(-c2cc(C(F)(F)F)nc(N3CCN(Cc4ccccc4)CC3)n2)cc1OC` had a Ki of 7.3 µM.
On to `COC(=O)C1=[N+]([O-])OC(C(=O)OC)C1c1c[nH]c2ccccc12` (stereo unspecified), for which the Ki was more than 40.3 µM.
`CCCc1cc(=O)n2[nH]c(C)c(-c3ccccc3)c2n1` had an inhibition constant Ki of more than 40.3 µM.
The same measure, in the same setting: the result for `Fc1ccc(-c2nnc3ccc(N4CCCC4)nn23)cc1` reads more than 40.3 µM; that for `Cc1c(CNCc2cccs2)c(C(=O)O)c(C)n1Cc1ccccc1`, more than 40.3 µM; that for `Cc1cccc(C2CC(c3ccc(Cl)cc3)Nc3nc(N)nn32)c1` (stereo unspecified), more than 40.3 µM.
In turn, `Nc1ccc(Nc2ccccc2N)cc1` showed a Ki of 9.1 µM.
The compound `CCOC(=O)Cc1cc(=O)n2[nH]c(C)c(-c3ccc(Cl)cc3)c2n1` registered a Ki of more than 40.3 µM.
`CC(=O)OCCNc1cc(N2CCN(C)CC2)c2noc3c2c1C(=O)c1ccccc1-3` had a Ki of 4.2 µM.
Regarding `CCOC(=O)c1cc(NC(=O)C2C3CCC(O3)C2C(=O)O)cc(C(=O)OCC)c1` (stereo unspecified), the inhibition constant (Ki) is more than 40.3 µM.
With `COc1ccc(/C(O)=C2/C(=O)C(=O)N(c3nc(C)c(C)s3)C2c2ccco2)cc1` (stereo unspecified), the IC50 was > 66.7 µM (inactive) and the Ki is more than 40.3 µM.
On to `CC(=O)SCC(=O)N=c1sc2cc(F)ccc2n1C`, for which the Ki was more than 40.3 µM.
On the same count and under the same terms, the result for `COc1ccc2cnn(-c3ccccc3)c(=O)c2c1OC` reads more than 40.3 µM; that for `COC(=O)C1(S(=O)(=O)c2cccc3nsnc23)CC1`, more than 40.3 µM; that for `Cc1ccc(NC(=O)C2CCCN2S(=O)(=O)c2cccc3cccnc23)cc1F` (stereo unspecified), more than 40.3 µM.
Turning to `O=C(C1=C(O)C(=O)N(c2ncccn2)C1c1cccc(Cl)c1)c1ccco1` (stereo unspecified), the IC50 was > 66.7 µM (inactive) and the Ki was more than 40.3 µM.
On to `CNc1nn(-c2cccc(Cl)c2)nc1N`, for which the Ki came to 11 µM.
Turning to `O=C(C1=C(O)C(=O)N(c2ncccn2)C1c1ccc(Cl)cc1)c1ccco1` (stereo unspecified), the IC50 was > 66.7 µM (inactive) and the Ki was more than 40.3 µM.
The matching figures for `COc1ccccc1C1/C(=C(/O)c2ccccc2)C(=O)C(=O)N1CC(C)C` (stereo unspecified): > 66.7 µM (inactive) and more than 40.3 µM.
